Measured values taken from PMC3445516 (PLoS ONE, 2012).
Like-named read-outs stand apart in the source and are kept apart here.

Tests used:
Test in all cases: Ambit kinase profiling, competition binding
p38-gamma = target: T1, p38-gamma (Homo sapiens, UniProt P53778)
T1 construct: purchased Ambit Biosciences (KINOMEscan)
T1 sequence (P53778 1-367): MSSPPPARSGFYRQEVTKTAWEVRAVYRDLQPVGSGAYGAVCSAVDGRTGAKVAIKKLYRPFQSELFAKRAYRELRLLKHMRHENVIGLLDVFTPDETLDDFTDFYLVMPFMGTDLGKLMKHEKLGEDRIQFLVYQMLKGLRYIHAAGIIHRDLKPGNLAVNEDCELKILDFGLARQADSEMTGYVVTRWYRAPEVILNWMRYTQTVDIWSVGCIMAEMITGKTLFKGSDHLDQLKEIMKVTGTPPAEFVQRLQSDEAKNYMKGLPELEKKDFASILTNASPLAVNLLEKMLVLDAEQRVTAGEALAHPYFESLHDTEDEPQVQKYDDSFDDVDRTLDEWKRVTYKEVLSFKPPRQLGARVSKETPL
Protocol: (§1) Also included in the kinase profile are four isoforms of PKC (δ, ε, η, θ) and eight isoforms of CAMKs (CAMKIα, δ, γ; CAMKIIα, β, δ, γ; CAMK4).
(§2) The global kinase profiling experiment was performed by Ambit Biosciences.

MEK3 = target: T2, MEK3 (Homo sapiens, UniProt P46734)
T2 construct: purchased Ambit Biosciences (KINOMEscan)
T2 sequence (P46734 1-347): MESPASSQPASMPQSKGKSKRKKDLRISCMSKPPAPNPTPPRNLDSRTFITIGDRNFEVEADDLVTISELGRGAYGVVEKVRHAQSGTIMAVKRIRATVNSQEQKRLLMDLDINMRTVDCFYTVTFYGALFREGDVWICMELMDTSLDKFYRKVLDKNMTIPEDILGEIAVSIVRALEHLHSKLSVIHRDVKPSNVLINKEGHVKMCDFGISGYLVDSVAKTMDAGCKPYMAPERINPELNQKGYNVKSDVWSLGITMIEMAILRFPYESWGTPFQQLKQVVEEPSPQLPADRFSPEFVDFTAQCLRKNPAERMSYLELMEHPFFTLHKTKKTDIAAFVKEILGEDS
Protocol: as §1, §2

CSNK1G3 = target: T3, CSNK1G3 (Homo sapiens, UniProt Q9Y6M4); conditions: for % Competition: 10 µM
T3 construct: purchased Ambit Biosciences (KINOMEscan)
Protocol: as §1, §2

EPHA3 = target: T4, EPHA3 (Homo sapiens, UniProt P29320)
T4 construct: purchased Ambit Biosciences (KINOMEscan)
T4 sequence (P29320 21-983): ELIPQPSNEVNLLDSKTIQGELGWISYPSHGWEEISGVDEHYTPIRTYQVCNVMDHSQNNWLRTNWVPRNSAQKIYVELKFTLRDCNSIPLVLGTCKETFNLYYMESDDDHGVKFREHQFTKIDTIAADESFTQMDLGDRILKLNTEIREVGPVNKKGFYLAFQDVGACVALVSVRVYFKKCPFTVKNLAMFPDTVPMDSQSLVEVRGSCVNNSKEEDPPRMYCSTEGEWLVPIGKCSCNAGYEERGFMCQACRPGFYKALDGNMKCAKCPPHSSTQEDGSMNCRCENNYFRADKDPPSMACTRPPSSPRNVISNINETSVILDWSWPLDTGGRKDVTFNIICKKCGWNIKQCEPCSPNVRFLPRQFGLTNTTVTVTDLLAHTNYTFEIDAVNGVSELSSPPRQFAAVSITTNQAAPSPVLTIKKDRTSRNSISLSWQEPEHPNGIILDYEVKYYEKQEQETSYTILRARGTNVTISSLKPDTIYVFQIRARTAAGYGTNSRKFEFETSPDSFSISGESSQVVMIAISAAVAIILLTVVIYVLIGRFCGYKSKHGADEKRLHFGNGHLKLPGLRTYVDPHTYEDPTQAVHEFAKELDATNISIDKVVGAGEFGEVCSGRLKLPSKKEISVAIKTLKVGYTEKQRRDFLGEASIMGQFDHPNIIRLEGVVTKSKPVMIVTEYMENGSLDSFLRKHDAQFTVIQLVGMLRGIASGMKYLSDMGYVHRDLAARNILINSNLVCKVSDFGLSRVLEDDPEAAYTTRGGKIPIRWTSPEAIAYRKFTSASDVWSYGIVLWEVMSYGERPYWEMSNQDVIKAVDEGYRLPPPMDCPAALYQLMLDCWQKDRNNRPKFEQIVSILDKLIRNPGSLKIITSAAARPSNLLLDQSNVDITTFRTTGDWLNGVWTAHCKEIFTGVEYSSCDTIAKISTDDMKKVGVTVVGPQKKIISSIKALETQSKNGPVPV
Protocol: as §1, §2

JNK2 = target: T5, JNK2 (Homo sapiens, UniProt P45984); conditions: for % Competition: 10 µM
T5 construct: purchased Ambit Biosciences (KINOMEscan)
Protocol: as §1, §2

MARK2 = target: T6, MARK2 (Homo sapiens, UniProt Q7KZI7)
T6 construct: purchased Ambit Biosciences (KINOMEscan)
Protocol: as §1, §2

ADCK3 = target: T7, ADCK3 (Homo sapiens, UniProt Q8NI60)
T7 construct: purchased Ambit Biosciences (KINOMEscan)
Protocol: as §1, §2

AURKC = target: T8, AURKC (Homo sapiens, UniProt Q9UQB9)
T8 construct: purchased Ambit Biosciences (KINOMEscan)
T8 sequence (Q9UQB9 1-309): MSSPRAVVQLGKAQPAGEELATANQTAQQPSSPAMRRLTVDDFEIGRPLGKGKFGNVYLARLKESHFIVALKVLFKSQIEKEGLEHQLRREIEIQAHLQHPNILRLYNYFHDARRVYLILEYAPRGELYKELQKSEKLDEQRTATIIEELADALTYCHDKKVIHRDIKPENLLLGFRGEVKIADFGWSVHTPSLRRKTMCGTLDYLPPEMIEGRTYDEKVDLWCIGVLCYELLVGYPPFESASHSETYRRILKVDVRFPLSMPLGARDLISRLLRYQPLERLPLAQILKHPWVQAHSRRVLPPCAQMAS
Protocol: as §1, §2

GSK3A = target: T9, GSK3A (Homo sapiens, UniProt P49840)
T9 construct: purchased Ambit Biosciences (KINOMEscan)
Protocol: as §1, §2

MRCKA = target: T10, MRCKA (Homo sapiens, UniProt Q5VT25)
T10 construct: purchased Ambit Biosciences (KINOMEscan)
Protocol: as §1, §2

CAMKIα = target: T11, CAMKIα (Homo sapiens, UniProt Q14012); conditions: for competition: CAMKIα, 10 µM
T11 construct: purchased Ambit Biosciences (KINOMEscan)
Protocol: as §1, §2

[1] = target: T12, JAK1 (JH2 domain-pseudokinase) (Homo sapiens, UniProt P23458); conditions: for % Competition: JAK1 (JH2 domain-pseudokinase), 10 µM
T12 construct: JAK1 (JH2 domain-pseudokinase); purchased Ambit Biosciences (KINOMEscan)
Protocol: as §1, §2

LCK = target: T13, LCK (Homo sapiens, UniProt P06239)
T13 construct: purchased Ambit Biosciences (KINOMEscan)
Protocol: as §1, §2

T6 sequence (Q7KZI7 whole entry): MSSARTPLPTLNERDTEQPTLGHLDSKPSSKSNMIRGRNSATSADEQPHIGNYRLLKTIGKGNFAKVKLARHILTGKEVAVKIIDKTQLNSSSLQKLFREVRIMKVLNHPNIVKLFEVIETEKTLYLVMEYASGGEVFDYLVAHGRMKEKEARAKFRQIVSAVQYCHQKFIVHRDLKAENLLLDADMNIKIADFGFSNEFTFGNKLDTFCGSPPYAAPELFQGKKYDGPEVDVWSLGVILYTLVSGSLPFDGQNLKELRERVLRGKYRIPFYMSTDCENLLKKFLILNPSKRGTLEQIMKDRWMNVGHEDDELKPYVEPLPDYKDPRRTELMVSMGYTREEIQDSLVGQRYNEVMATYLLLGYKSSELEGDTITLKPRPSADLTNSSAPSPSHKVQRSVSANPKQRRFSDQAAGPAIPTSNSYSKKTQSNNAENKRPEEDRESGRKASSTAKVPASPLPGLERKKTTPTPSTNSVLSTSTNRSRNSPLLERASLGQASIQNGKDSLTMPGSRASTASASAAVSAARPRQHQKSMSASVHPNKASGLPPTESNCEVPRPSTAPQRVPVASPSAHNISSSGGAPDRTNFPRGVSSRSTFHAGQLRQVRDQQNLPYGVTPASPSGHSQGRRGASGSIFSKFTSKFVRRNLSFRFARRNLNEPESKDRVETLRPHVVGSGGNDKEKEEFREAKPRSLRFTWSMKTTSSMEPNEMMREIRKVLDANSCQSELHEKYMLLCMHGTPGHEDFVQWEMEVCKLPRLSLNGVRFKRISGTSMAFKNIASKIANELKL
T5 sequence (P45984 whole entry): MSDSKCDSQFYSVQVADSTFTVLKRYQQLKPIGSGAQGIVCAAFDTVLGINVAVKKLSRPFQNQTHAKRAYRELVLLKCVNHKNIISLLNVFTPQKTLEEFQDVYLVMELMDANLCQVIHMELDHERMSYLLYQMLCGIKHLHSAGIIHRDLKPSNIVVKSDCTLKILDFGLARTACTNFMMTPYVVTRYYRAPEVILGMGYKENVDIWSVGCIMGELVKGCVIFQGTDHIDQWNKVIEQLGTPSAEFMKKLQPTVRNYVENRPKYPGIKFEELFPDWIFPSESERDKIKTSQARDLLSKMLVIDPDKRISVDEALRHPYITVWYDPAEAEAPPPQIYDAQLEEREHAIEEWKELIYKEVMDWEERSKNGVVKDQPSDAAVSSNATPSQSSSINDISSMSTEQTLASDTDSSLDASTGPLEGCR
T11 sequence (Q14012 whole entry): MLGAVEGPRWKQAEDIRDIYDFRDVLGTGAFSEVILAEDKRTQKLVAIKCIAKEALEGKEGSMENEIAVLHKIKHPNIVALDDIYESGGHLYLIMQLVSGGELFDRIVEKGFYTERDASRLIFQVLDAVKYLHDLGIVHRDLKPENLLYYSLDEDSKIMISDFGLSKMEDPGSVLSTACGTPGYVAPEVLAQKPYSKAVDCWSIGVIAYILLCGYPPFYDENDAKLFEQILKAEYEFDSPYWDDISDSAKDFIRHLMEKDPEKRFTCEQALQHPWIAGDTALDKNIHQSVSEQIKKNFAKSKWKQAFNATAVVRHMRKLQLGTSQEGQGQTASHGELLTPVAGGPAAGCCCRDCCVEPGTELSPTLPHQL
T3 sequence (Q9Y6M4 whole entry): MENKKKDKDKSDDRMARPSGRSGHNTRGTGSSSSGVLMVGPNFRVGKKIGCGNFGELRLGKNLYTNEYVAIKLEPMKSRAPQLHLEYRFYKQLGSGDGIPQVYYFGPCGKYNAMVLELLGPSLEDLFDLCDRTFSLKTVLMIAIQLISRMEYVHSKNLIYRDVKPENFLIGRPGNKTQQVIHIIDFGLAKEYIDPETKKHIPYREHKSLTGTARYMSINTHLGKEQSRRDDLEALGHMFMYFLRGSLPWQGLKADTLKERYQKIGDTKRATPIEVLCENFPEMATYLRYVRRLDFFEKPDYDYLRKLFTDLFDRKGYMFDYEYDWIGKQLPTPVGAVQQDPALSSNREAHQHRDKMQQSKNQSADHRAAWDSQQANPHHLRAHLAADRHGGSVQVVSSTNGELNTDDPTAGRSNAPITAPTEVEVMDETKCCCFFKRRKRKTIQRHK
T7 sequence (Q8NI60 163-647): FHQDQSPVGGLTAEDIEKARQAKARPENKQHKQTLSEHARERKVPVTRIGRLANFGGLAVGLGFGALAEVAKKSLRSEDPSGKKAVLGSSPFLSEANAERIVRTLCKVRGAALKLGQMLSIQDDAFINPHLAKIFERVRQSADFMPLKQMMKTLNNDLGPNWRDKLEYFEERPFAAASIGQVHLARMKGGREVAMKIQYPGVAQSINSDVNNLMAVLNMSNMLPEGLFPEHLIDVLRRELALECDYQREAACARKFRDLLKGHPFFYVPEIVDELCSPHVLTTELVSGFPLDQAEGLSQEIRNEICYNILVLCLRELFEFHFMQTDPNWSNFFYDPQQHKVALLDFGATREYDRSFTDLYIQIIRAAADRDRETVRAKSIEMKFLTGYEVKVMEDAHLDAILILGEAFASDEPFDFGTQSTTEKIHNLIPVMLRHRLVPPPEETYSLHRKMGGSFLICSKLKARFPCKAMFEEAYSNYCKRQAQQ
T13 sequence (P06239 whole entry): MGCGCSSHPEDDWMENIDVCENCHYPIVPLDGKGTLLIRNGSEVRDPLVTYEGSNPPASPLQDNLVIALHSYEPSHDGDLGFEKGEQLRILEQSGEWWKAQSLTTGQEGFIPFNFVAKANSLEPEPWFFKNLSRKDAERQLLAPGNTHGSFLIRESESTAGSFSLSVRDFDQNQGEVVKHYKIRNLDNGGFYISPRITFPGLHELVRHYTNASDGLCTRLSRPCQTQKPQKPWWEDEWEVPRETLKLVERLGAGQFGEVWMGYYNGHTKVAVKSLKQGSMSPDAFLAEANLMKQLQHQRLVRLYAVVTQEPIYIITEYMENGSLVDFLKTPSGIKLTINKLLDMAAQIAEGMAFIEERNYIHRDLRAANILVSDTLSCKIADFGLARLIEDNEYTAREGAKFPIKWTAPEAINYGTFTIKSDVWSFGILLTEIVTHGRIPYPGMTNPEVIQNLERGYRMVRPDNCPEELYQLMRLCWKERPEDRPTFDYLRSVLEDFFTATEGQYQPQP
T9 sequence (P49840 whole entry): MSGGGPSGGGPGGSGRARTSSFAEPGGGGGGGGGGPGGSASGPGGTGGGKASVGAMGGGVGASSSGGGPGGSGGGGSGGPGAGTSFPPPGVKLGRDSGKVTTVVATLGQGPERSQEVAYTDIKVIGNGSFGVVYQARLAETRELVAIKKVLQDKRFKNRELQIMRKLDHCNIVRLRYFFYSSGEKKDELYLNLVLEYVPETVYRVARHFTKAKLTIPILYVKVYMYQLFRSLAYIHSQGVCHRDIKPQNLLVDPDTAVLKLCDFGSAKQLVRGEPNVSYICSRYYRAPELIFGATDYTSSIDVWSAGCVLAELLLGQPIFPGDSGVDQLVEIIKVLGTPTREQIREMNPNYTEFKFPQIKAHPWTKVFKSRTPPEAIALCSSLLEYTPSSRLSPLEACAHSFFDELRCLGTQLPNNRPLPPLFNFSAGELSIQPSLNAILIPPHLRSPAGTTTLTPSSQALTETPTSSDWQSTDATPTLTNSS
T12 sequence (P23458 583-855 limits assumed): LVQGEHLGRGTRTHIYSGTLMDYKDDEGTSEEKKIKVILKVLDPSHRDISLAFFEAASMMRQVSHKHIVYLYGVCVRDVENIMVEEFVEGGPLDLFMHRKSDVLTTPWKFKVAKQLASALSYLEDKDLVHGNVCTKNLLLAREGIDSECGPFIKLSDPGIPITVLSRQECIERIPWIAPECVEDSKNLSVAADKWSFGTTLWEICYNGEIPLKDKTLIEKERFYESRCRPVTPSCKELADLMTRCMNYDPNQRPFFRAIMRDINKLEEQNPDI

For Fc1ccc(-c2c(-c3ccncc3)[nH]c3nccnc23)cc1 [Compound 122], the inhibition at 10 µM (p38-gamma; 10 µM, read-out: % Competition) was 90%, the inhibition at 10 µM (MEK3; MEK3, 10 µM, read-out: % Competition) was 99% and the “% Competition” value (CSNK1G3) was 86%. For the same molecule, the inhibition at 10 µM (EPHA3; EPHA3, 10 µM, read-out: % Competition) was 85%, the “% Competition” value (JNK2) was 100% and the inhibition at 10 µM (MARK2; MARK2, 10 µM, read-out: % Competition) was 77%. The inhibition at 10 µM (ADCK3; ADCK3, 10 µM, read-out: % Competition) was 83%, the inhibition at 10 µM (AURKC; AURKC, 10 µM, read-out: % Competition) was 86% and the inhibition at 10 µM (GSK3A; GSK3A, 10 µM, read-out: % Competition) was 98%. For the same molecule, the inhibition at 10 µM (MRCKA; MRCKA, 10 µM, read-out: % Competition) was 99%, the competition (CAMKIα) was under 50% and the “% Competition” value [1] was 99%. The inhibition at 10 µM (LCK; LCK, 10 µM, read-out: % Competition) was 71%.

For CC(O)CNc1cc(-c2[nH]c3cccnc3c2-c2ccc(F)cc2)ccn1 (stereo not drawn) [Compound 140], the “% Competition” value (p38-gamma; 10 µM) was under 50%, the inhibition at 10 µM (MEK3; read-out: % Competition) was under 50% and the “% Competition” value (CSNK1G3) was 91%. For the same molecule, the inhibition at 10 µM (EPHA3; read-out: % Competition) was under 50%, the “% Competition” value (JNK2) was 100% and the inhibition at 10 µM (MARK2; read-out: % Competition) was under 50%. It also gave an inhibition at 10 µM (ADCK3; read-out: % Competition) of 90%, an inhibition at 10 µM (AURKC; read-out: % Competition) of under 50% and an inhibition at 10 µM (GSK3A; read-out: % Competition) of under 50%. The inhibition at 10 µM (MRCKA; read-out: % Competition) was under 50%, the competition (CAMKIα) was under 50% and the “% Competition” value [1] was 90%. For the same molecule, the inhibition at 10 µM (LCK; read-out: % Competition) was under 50%.

With Fc1ccc(-c2c(-c3ccncc3)[nH]c3nccnc23)cc1 [RO1155697-000-005] the inhibition at 10 µM (p38-gamma; compound concentration 10 uM, read-out: Percent Competition) was 90%, the inhibition at 10 µM (MEK3; MEK3, compound concentration 10 uM, read-out: Percent Competition) was 99% and the “Percent Competition” value (CSNK1G3; compound concentration 10 uM) was 86%. For the same molecule, the inhibition at 10 µM (EPHA3; EPHA3, compound concentration 10 uM, read-out: Percent Competition) was 85%, the “Percent Competition” value (JNK2; compound concentration 10 uM) was 100% and the inhibition at 10 µM (MARK2; MARK2, compound concentration 10 uM, read-out: Percent Competition) was 77%. It also gave an inhibition at 10 µM (ADCK3; ADCK3, compound concentration 10 uM, read-out: Percent Competition) of 83%, an inhibition at 10 µM (AURKC; AURKC, compound concentration 10 uM, read-out: Percent Competition) of 86% and an inhibition at 10 µM (GSK3A; GSK3A, compound concentration 10 uM, read-out: Percent Competition) of 98%. For the same molecule, the inhibition at 10 µM (MRCKA; MRCKA, compound concentration 10 uM, read-out: Percent Competition) was 99%, the inhibition at 10 µM (CAMKIα; CAMK1, compound concentration 10 uM, read-out: Percent Competition) was under 50% and the “Percent Competition” value ([1]; JAK1(JH2domain-pseudokinase), compound concentration 10 uM) was 99%. For the same molecule, the inhibition at 10 µM (LCK; LCK, compound concentration 10 uM, read-out: Percent Competition) was 71%.
